Source: article PMC11530689, “Anti colorectal cancer activity and in silico studies of novel pyridine nortopsentin analog as cyclin dependent kinase 6 inhibitor” (Scientific Reports, 2024)

Assays:
Test in all cases: NCI 60 cell line screen
A549/ATCC = type: cell-based; settings: Non-Small Cell Lung Cancer, single concentration 10^−5 M
Method: (§1) The cytotoxic activity of nortopsintin analogs (4a-4j) was determined by the national cancer institute (NCI, Bethesda, Maryland, USA) against 60 different cancer cell lines at a single concentration of (10^-5 M). For the determination of IC50 value, we used MTT assay kit (Sigma) according to the manufacturer's protocol. HCT-116 cells were seeded into a 96-well plate at a concentration of 20,000 cells/well. After 24 h, the media was aspirated and replaced with serum-free media containing serial dilutions of the 4i compound. […] The percentage of cytotoxicity was calculated using the following equation: % Cytotoxicity = [1 - ([…])] × 100.

786-0 = type: cell-based; settings: 786-0, Renal Cancer; single concentration 10^−5 M
Method: as §1

SNB-75 = type: cell-based; settings: SNB-75, CNS Cancer; single concentration 10^−5 M
Method: as §1

CCRF-CEM = type: cell-based; settings: Leukemia, single concentration 10^−5 M
Method: as §1

SN12C = type: cell-based; settings: Renal Cancer, single concentration 10^−5 M
Method: as §1

SK-OV-3 = type: cell-based; settings: SK-OV-3, Ovarian Cancer; single concentration 10^−5 M
Method: as §1

SNB-19 = type: cell-based; settings: SNB-19, CNS Cancer; single concentration 10^−5 M
Method: as §1

HCC-2998 = type: cell-based; settings: HCC-2998, Colon Cancer; single concentration 10^−5 M
Method: as §1

CAKI-1 = type: cell-based; settings: CAKI-1, Renal Cancer; single concentration 10^−5 M
Method: as §1

HL-60 (TB) = type: cell-based; settings: Leukemia, single concentration 10^−5 M
Method: as §1

SW-620 = type: cell-based; settings: SW-620, Colon Cancer; single concentration 10^−5 M
Method: as §1

M14 = type: cell-based; settings: M14, Melanoma; single concentration 10^−5 M
Method: as §1

OVCAR-8 = type: cell-based; settings: OVCAR-8, Ovarian Cancer; single concentration 10^−5 M
Method: as §1

OVCAR-5 = type: cell-based; settings: OVCAR-5, Ovarian Cancer; single concentration 10^−5 M
Method: as §1

COLO205 = type: cell-based; settings: COLO205, Colon Cancer; single concentration 10^−5 M
Method: as §1

HOP-92 = type: cell-based; settings: HOP-92, Non-Small Cell Lung Cancer; single concentration 10^−5 M
Method: as §1

HT29 = type: cell-based; settings: HT29, Colon Cancer; single concentration 10^−5 M
Method: as §1

SK-MEL-2 = type: cell-based; settings: SK-MEL-2, Melanoma; single concentration 10^−5 M
Method: as §1

NCI/ADR-RES = type: cell-based; settings: Ovarian Cancer, single concentration 10^−5 M
Method: as §1

NCI-H226 = type: cell-based; settings: NCI-H226, Non-Small Cell Lung Cancer; single concentration 10^−5 M
Method: as §1

IGROV1 = type: cell-based; settings: IGROV1, Ovarian Cancer; single concentration 10^−5 M
Method: as §1

MCF7 = type: cell-based; settings: MCF7, Breast Cancer; single concentration 10^−5 M
Method: as §1

SK-MEL-5 = type: cell-based; settings: SK-MEL-5, Melanoma; single concentration 10^−5 M
Method: as §1

A498 = type: cell-based; settings: A498, Renal Cancer; single concentration 10^−5 M
Method: as §1

NCI-H460 = type: cell-based; settings: NCI-H460, Non-Small Cell Lung Cancer; single concentration 10^−5 M
Method: as §1

RXF 393 = type: cell-based; settings: RXF 393, Renal Cancer; single concentration 10^−5 M
Method: as §1

MOLT-4 = type: cell-based; settings: MOLT-4, Leukemia; single concentration 10^−5 M
Method: as §1

ACHN = type: cell-based; settings: Renal Cancer, single concentration 10^−5 M
Method: as §1

EKVX = type: cell-based; settings: Non-Small Cell Lung Cancer, single concentration 10^−5 M
Method: as §1

HOP-62 = type: cell-based; settings: HOP-62, Non-Small Cell Lung Cancer; single concentration 10^−5 M
Method: as §1

K-562 = type: cell-based; settings: K-562, Leukemia; single concentration 10^−5 M
Method: as §1

MALME-3M = type: cell-based; settings: Melanoma, single concentration 10^−5 M
Method: as §1

KM12 = type: cell-based; settings: KM12, Colon Cancer; single concentration 10^−5 M
Method: as §1

SF-539 = type: cell-based; settings: SF-539, CNS Cancer; single concentration 10^−5 M
Method: as §1

NCI-H322M = type: cell-based; settings: Non-Small Cell Lung Cancer, single concentration 10^−5 M
Method: as §1

MDA-MB-231/ATCC = type: cell-based; settings: Breast Cancer, single concentration 10^−5 M
Method: as §1

T-47D = type: cell-based; settings: Breast Cancer, single concentration 10^−5 M
Method: as §1

HCT-116 = type: cell-based, human; settings: HCT-116, Colon Cancer; single concentration 10^−5 M
Method: as §1

## COc1cc(-c2cc(-c3c[nH]c4ccccc34)nc(-c3c[nH]c4ccccc34)c2C#N)cc(OC)c1OC [4g]
A549/ATCC
  Growth %: 99.60%
786-0
  Growth %: 102.99%
SNB-75
  Growth %: 77.85%
CCRF-CEM
  Growth %: 99.17%
SN12C
  Growth %: 91.09%
SK-OV-3
  Growth %: 97.19%
SNB-19
  Growth %: 98.31%
HCC-2998
  Growth %: 107.87%
CAKI-1
  Growth %: 75.97%
HL-60 (TB)
  Growth %: 101.32%
SW-620
  Growth %: 100.40%
M14
  Growth %: 98.40%
OVCAR-8
  Growth %: 98.26%
OVCAR-5
  Growth %: 103.55%
COLO205
  Growth %: 106.57%
HOP-92
  Growth %: 92.84%
HT29
  Growth %: 105.35%
SK-MEL-2
  Growth %: 92.02%
NCI/ADR-RES
  Growth %: 100.17%
NCI-H226
  Growth %: 87.22%
IGROV1
  Growth %: 74.20%
MCF7
  Growth %: 88.35%
SK-MEL-5
  Growth %: 98.25%
A498
  Growth %: 103.11%
NCI-H460
  Growth %: 106.65%
RXF 393
  Growth %: 120.31%
MOLT-4
  Growth %: 100.72%
ACHN
  Growth %: 98.52%
EKVX
  Growth %: 87.27%
HOP-62
  Growth %: 87.93%
K-562
  Growth %: 90.08%
MALME-3M
  Growth %: 88.70%
KM12
  Growth %: 99.69%
SF-539
  Growth %: 93.66%
NCI-H322M
  Growth %: 93.11%
MDA-MB-231/ATCC
  Growth %: 82.84%
T-47D
  Growth %: 96.11%
HCT-116
  Growth %: 104.41%

## N#Cc1c(-c2ccc(Br)cc2)cc(-c2c[nH]c3ccccc23)nc1-c1c[nH]c2ccccc12 [4b]
A549/ATCC
  Growth %: 98.58%
786-0
  Growth %: 101.55%
SNB-75
  Growth %: 91.48%
CCRF-CEM
  Growth %: 102.80%
SN12C
  Growth %: 96.36%
SK-OV-3
  Growth %: 100.81%
SNB-19
  Growth %: 98.35%
HCC-2998
  Growth %: 114.86%
CAKI-1
  Growth %: 81.43%
HL-60 (TB)
  Growth %: 102.74%
SW-620
  Growth %: 105.18%
M14
  Growth %: 102.89%
OVCAR-8
  Growth %: 96.50%
OVCAR-5
  Growth %: 107.40%
COLO205
  Growth %: 111.43%
HOP-92
  Growth %: 92.57%
HT29
  Growth %: 107.82%
SK-MEL-2
  Growth %: 95.21%
NCI/ADR-RES
  Growth %: 99.61%
NCI-H226
  Growth %: 87.72%
IGROV1
  Growth %: 73.65%
MCF7
  Growth %: 85.19%
SK-MEL-5
  Growth %: 97.46%
A498
  Growth %: 95.35%
NCI-H460
  Growth %: 106.47%
RXF 393
  Growth %: 109.74%
MOLT-4
  Growth %: 99.47%
ACHN
  Growth %: 99.45%
EKVX
  Growth %: 85.89%
HOP-62
  Growth %: 98.17%
K-562
  Growth %: 96.82%
MALME-3M
  Growth %: 103.25%
KM12
  Growth %: 99.86%
SF-539
  Growth %: 97.32%
NCI-H322M
  Growth %: 104.62%
MDA-MB-231/ATCC
  Growth %: 101.07%
T-47D
  Growth %: 85.37%
HCT-116
  Growth %: 104.37%
